Like-named read-outs stand apart in the source and are kept apart here.
Experiments:
[1] = system: imatinib sensitive cell lines; experiment: Cell proliferation assay; type: cell-based; settings: 72 h
GIST-T1/670 [2] = experiment: Cell proliferation assay (Cell Counting Kit-8); type: cell-based, human; settings: read-out: IC50 T1/670
MCF7 [3] = experiment: Cell proliferation assay, control cell line; settings: Homo sapiens, MCF7, 72 h, read-out: IC50 MCF7
MRC5 = experiment: Cell proliferation assay, control cell line; settings: Homo sapiens, MRC5, 72 h, read-out: IC50 MRC5
GIST-T1/10R = experiment: Cell proliferation assay (Cell Counting Kit-8); type: cell-based, human; settings: read-out: IC50 T1-10R
GIST-T1 [4] = experiment: Cell proliferation assay (Cell Counting Kit-8), drug screen; type: cell-based, human; settings: read-out: IC50 GIST-T1
GIST882 = experiment: as above; type: cell-based; settings: read-out: IC50 GIST882
p-MAPK = experiment: Immunoblot analysis of p-MAPK (p-ERK); type: cell-based; settings: 24 h
GIST-T1/670 [5] = experiment: Caspase 3/7 apoptosis assay; type: cell-based, human; settings: GIST-T1/670, 48 h
Source text: (§1) Inhibitor concentrations used were as mentioned in figure legends.
(§2) Fig 4 Combined Inhibition of KIT, PI3K and MAPK signaling pathways induces apoptosis in GIST cells. […] The data is represented as percent increase over untreated cells; each column represents mean of triplicates. […] (***p<0.0001); (**p<0.001); (*p<0.05).

metastatic GIST = settings: cited from earlier work
GIST-T1 [6] = experiment: Caspase 3/7 apoptosis assay; type: cell-based, human; settings: GIST-T1, 48 h, single agent
Source text: as §1, §2

MCF7 [7] = experiment: Caspase 3/7 apoptosis assay of screen hits; type: cell-based; settings: triptolide 25 nM
Protocol: (§3) Around 10,000 cells/well were plated in complete media in 96-well white flat-bottom plates and therapeutic compounds were added 24 hours later. Apoptosis was evaluated by measuring caspase-3/7 activity using Caspase-Glo 3/7 Assay System (Promega, WI, USA) after 24 and 48 h of treatment with inhibitors. […] Inhibitor concentrations used were as mentioned in figure legends.
(§4) The data is represented as % of control; each bar represents the mean of triplicates. […] Cells were treated with inhibitors at indicated concentrations for 24 h.

[8] = system: imatinib sensitive and resistant cell lines; experiment: Caspase 3/7 apoptosis assay of screen hits; settings: 24 h and 48 h; irinotecan 0.5 μM, sorafenib 500 nM, compound C 5 μM, triptolide 25 nM
Protocol: as §3, §4

[9] = Homo sapiens, GISTT1, cell viability after 72 hours of treatment
[10] = Homo sapiens, GIST882, cell viability after 72 hours of treatment
[11] = cell viability after 72 hours of treatment

Row | Molecule | IC50 (GIST-T1/670 [2]; [9]) | IC50 (MCF7 [3]) | IC50 (MRC5) | IC50 (GIST-T1/10R; [9]) | IC50 (GIST-T1 [4]; [9]) | IC50 (GIST882; [10]) | other results
1 | C[C@]12O[C@H](C[C@]1(O)CO)n1c3ccccc3c3c4c(c5c6ccccc6n2c5c31)CNC4=O [Lestaurtinib] | 5 µM | > 10 µM | > 10 µM | 5 µM | 0.1 µM | > 10 µM | concentration that inhibited the proliferation of imatinib sensitive cell lines [1]: < 0.5 µM
2 | Cc1ccc(NC(=O)c2ccc(CN3CCN(C)CC3)cc2)cc1Nc1nc(-c2cccnc2)cs1 [Masatinib] | 5 µM | – | – | 5 µM | 0.025 µM | 0.05 µM | –
3 | Cc1cn(-c2cc(NC(=O)c3ccc(C)c(Nc4nccc(-c5cccnc5)n4)c3)cc(C(F)(F)F)c2)cn1 [Nilotinib] | > 10 µM | – | – | > 10 µM | 0.025 µM | 0.025 µM | –
4 | O=C(NOC[C@H](O)CO)c1ccc(F)c(F)c1Nc1ccc(I)cc1F [PD325901] | – | – | – | – | – | – | concentration that inhibited the proliferation of imatinib sensitive cell lines [1]: < 0.5 µM; IC50 (GIST-T1/670 [2]; Homo sapiens, GISTT1, 72 h): 1 µM; inhibition of p-MAPK (p-MAPK; 100 nM, any of the cell lines tested, western blot): not sufficient to inhibit; inhibition at 0.5 µM (p-MAPK; read-out: inhibition of p-MAPK): ~80%; IC50 (GIST-T1/10R; Homo sapiens, GISTT1, 72 h): 1 µM; increase in apoptosis (caspase 3/7 activity) (GIST-T1/670 [5]; over untreated cells): about two; IC50 (GIST-T1 [4]; Homo sapiens, GISTT1, 72 h): 0.5 µM; IC50 (GIST882; Homo sapiens, GIST882, 72 h): 0.5 µM
5 | Cc1ccc(Nc2nccc(N(C)c3ccc4c(C)n(C)nc4c3)n2)cc1S(N)(=O)=O [Pazopanib] | > 5 µM | > 10 µM | > 10 µM | > 1 µM | 0.025 µM | 0.5 µM | –
6 | CNC(=O)c1cc(Oc2ccc(NC(=O)Nc3ccc(Cl)c(C(F)(F)F)c3)c(F)c2)ccn1 [Regorafenib] | 1 µM | > 10 µM | > 10 µM | 1 µM | < 0.1 µM | < 0.1 µM | time until resistance occurs (metastatic GIST; second-line / third-line therapy): 6–12 months; induction of apoptosis (caspase 3/7 activity) (GIST-T1 [6]): did not induce apoptosis; induction of apoptosis (caspase 3/7 activity) (GIST-T1/670 [5]; single agent): able to induce apoptosis effectively
7 | CCn1c(=O)c(-c2cc(NC(=O)Nc3ccccc3)c(F)cc2Br)cc2cnc(NC)cc21 [Ripretinib] | – | – | – | – | – | – | mean progression-free survival (metastatic GIST; 4th line therapy): 6.3 months
8 | Nc1ncnc2c1nc(Br)n2C1OC2COP(O)(=S)OC2C1O (stereo not drawn) [Rps-Br-cAMPS] | – | – | – | – | – | – | IC50 (GIST-T1 [4]; [11]): > 100 µM; IC50 (GIST882; [11]): > 100 µM
9 | Oc1c2ccccc2c2c3c(cccc13)N=N2 [SP600125] | 1 µM | – | – | 1 µM | 1 µM | 1 µM | –
10 | O=C1CCc2c(ccc3ccccc23)O1 [Splitomicin] | > 10 µM | > 10 µM | > 10 µM | > 10 µM | > 10 µM | 15 µM | –
11 | CO[C@H]1C[C@@H]2CC[C@@H](C)[C@@](O)(O2)C(=O)C(=O)N2CCCC[C@H]2C(=O)O[C@H]([C@H](C)C[C@@H]2CC[C@@H](OC(=O)C(C)(CO)CO)[C@H](OC)C2)CC(=O)[C@H](C)/C=C(\C)[C@@H](O)[C@@H](OC)C(=O)[C@H](C)C[C@H](C)/C=C/C=C/C=C/1C [Temsirolimus] | > 100 µM | – | – | > 100 µM | > 100 µM | > 100 µM | –
12 | O=C1CCC(N2C(=O)c3ccccc3C2=O)C(=O)N1 (stereo not drawn) [Thalidomide] | > 100 µM | – | – | > 100 µM | > 100 µM | > 100 µM | –
13 | Cc1cc(Nc2cc(N3CCN(C)CC3)nc(Sc3ccc(NC(=O)C4CC4)cc3)n2)[nH]n1 [Tozasertib] | > 10 µM | 5 µM | 5 µM | > 10 µM | 5 µM | 5 µM | –
14 | CC(C)[C@]12O[C@H]1[C@@H]1O[C@]13[C@]1(O[C@H]1C[C@H]1C4=C(CC[C@@]13C)C(=O)OC4)[C@@H]2O [Triptolide] | < 0.025 µM | > 10 µM | 0.01 µM | < 0.025 µM | < 0.01 µM | < 0.01 µM | concentration that inhibited the proliferation of imatinib sensitive cell lines [1]: < 0.5 µM; cytotoxicity (caspase 3/7 activity) in MCF7 (MCF7 [7]): showed cytotoxicity; cytotoxic effects (caspase 3/7 activity) [8]: ≥ 2 fold
15 | Clc1ccc(Nc2nnc(Cc3ccncc3)c3ccccc23)cc1 [Vatalanib] | > 10 µM | > 10 µM | > 10 µM | > 10 µM | 0.1 µM | 1 µM | –
16 | Sarcatanib | – | – | – | – | – | – | IC50 (GIST-T1/670 [2]; [11]): > 10 µM; IC50 (GIST-T1/10R; [11]): > 10 µM; IC50 (GIST-T1 [4]; [11]): 5 µM; IC50 (GIST882; [11]): 1 µM

Source: publication PMC8320897, “Inhibition of PI3K and MAPK pathways along with KIT inhibitors as a strategy to overcome drug resistance in gastrointestinal stromal tumors” (PLoS ONE, 2021)
